For series [1], the system named is ERRγ protein in CAL62 cells. As to the kind of experiment: Western blot, ERRγ protein. The class given is cell-based. For orientation: In western blotting, separated proteins are transferred to a membrane and probed.
Series [2] concerns NIS protein in CAL62 cells. Kind of series: Western blot, total and membrane-localized NIS protein. Type of series: cell-based, human.
The subject of another series is ERRγ mRNA in CAL62 cells. As to the kind of experiment: Quantitative RT-PCR, ERRγ mRNA. Type of series: cell-based. How it is done: (§1) Total RNA was separated using Trizol (Invitrogen, Carlsbad, Calif.). Total RNA (2 ug) was reverse-transcribed into cDNA with RevertAid First Strand cDNA Synthesis Kit (Thermo Scientific, Pittsburgh, Pa.). Genes were amplified with a ViiA 7 Real-Time PCR System instrument (Applied Biosystems) using the primer of each target gene and YBR Green PCR master mix (Applied Biosystems, Foster City, Calif.), using a cDNA template. The primer sequence of each target gene is as follows: ERRγ (forward, 5′-CAG ACG CCA GTG GGA GCT A-3′; reverse, 5′-TGGCGAGTCAAGTCCGTTCT-3′), NIS (forward, 5′-TCTAACCGATGCTCACCTCTTCTG-3′; reverse, 5′-AGATGATGGCACCTCCTTGAACC-3′), and acidic ribosomal protein 36B4 (forward, 5′-CCA CGC TGC TGA ACA TGC T-3′; reverse, 5′-TCGAACACCTGCTGGATGAC-3′). Each target gene was normalized using a 36B4 gene.

Series [3] concerns CAL-62/effluc mouse tumor model. Kind of series: Bio-distribution study, 125I uptake in CAL-62/effluc tumor. The class given is in vivo.
Description: Nude mice (Balb/c nu/nu, female, 6 weeks old) were used, and all animals were normally raised in DMRC center animal laboratory of Kyungbuk National University Hospital in Chilgok. 5×10^6 CAL-62/effluc cells were subcutaneously injected into the left femoral region of the nude mouse to form a tumor. The tumor was extracted, divided into small pieces (20 mg or more), and then intradermally injected into the nude mouse to form a tumor.
After 4 hours of administration, all organs including a parent tumor were extracted, and each organ was weighed. Thereafter, each organ was transferred to a 5 mL test tube, and radioactivity in the organ was measured using a gamma counter.
The target in a further series is CYP1A2 (Homo sapiens (Human), UniProt P05177). As to the kind of experiment: Cytochrome P450 activity inhibition, CYP1A2. Type of series: in vitro ADME. The settings on record: 10 μM, human liver microsomes. From the text:
(§2) 1) Cytochrome P450 (CYP450) Activity Inhibition Evaluation

The next series deals with NIS mRNA in CAL62 cells. As to the kind of experiment: Quantitative RT-PCR, NIS mRNA. Type of series: cell-based. How it is done:
as §1

Series [4] can be described thus: Weight change of mice during administration. Particulars: all groups.
Another series has as its system CAL62 cells. As to the kind of experiment: Clonogenic assay with 131I. The class given is cell-based. The settings on record: alone.
The test system of a further series is CAL-62 cells. Kind of series: 125I uptake assay in anaplastic thyroid cancer cells. Type of series: cell-based.
Another series concerns the target CYP2D6 (Homo sapiens (Human), UniProt P10635). Kind of series: Cytochrome P450 activity inhibition, CYP2D6. The class given is in vitro ADME. The settings on record: 10 μM, human liver microsomes.
Description: as §2
(In general: Microsomes from liver hold many membrane-bound enzymes, among them those of drug oxidation.)

The subject of the next series is ERRγ. Type of series: cell-based.
Series [5] is classed as in vitro ADME, mouse. The settings on record: 1 μM, 30 minutes, 37° C.
Description: 2) Microsomal Stability Evaluation
(§3) Four liver microsomes (Human, Dog, Rat, Mouse 0.5 mg/ml) with a 0.1 M phosphate buffer solution (pH 7.4), and the arylethene derivative of the present invention were added to a concentration of 1 μM, culturing was performed at 37° C. for 5 minutes in advance, a NADPH regeneration system solution was added thereto, and culturing was performed at 37° C. for 30 minutes. Thereafter, in order to complete the reaction, an acetonitrile solution containing an internal standard material (chlorpropamide) was added thereto, centrifugation (14,000 rpm, 4° C.) was performed for 5 minutes, and a supernatant was injected into a LC-MS/MS system to analyze the substrate drug, thereby evaluating metabolism stability to the arylethene derivative of the present invention.
The target in series [6] is ER alpha ligand-binding domain (LBD) (Homo sapiens (Human), UniProt P03372). Particulars: beta-estradiol 4 nM as agonist; read-out: Binding Assay, IC50 ERα.
Description: (§4) The arylethene derivative of the present invention was sequentially added to a 384 well plate from a concentration of 10 μM to a final concentration of two-fold dilution. […] After all reagents were added, a reaction was carried out with gentle shaking at 20° C. for 1 hour, and after the reaction, a binding activity was measured by a TR-FRET method.
Series [7] is classed as in vitro ADME, rat. The settings on record: 1 μM, 30 minutes, 37° C.
Description: 2) Microsomal Stability Evaluation
as §3
The target in the next series is CYP2C19 (Homo sapiens (Human), UniProt P33261). As to the kind of experiment: Cytochrome P450 activity inhibition, CYP2C19. Type of series: in vitro ADME. Particulars: 10 μM, human liver microsomes.
Description: as §2

The next series concerns the target ERRβ (Homo sapiens, UniProt O95718). Kind of series: ERRβ binding assay (selectivity test), TR-FRET.
For a further series, the target named is ERR alpha LBD (Homo sapiens (Human), UniProt P11474). Particulars: read-out: Binding Assay, IC50 ERRα.
The next series addresses CYP2C9 (Homo sapiens (Human), UniProt P11712). As to the kind of experiment: Cytochrome P450 activity inhibition, CYP2C9. Type of series: in vitro ADME. The settings on record: 10 μM, human liver microsomes.
Description: as §2

Another series concerns the target CYP3A4 (Homo sapiens (Human), UniProt P08684). Kind of series: Cytochrome P450 activity inhibition, CYP3A4. The class given is in vitro ADME. Particulars: 10 μM, human liver microsomes.
Series [8] is classed as in vitro ADME, human. The settings on record: 1 μM, 30 minutes, 37° C.
Description: 2) Microsomal Stability Evaluation
as §3
Series [9] is classed as in vitro ADME, dog. Particulars: 1 μM, 30 minutes, 37° C.
Description: 2) Microsomal Stability Evaluation
as §3
In series [10] the target is ERR gamma ligand-binding domain (LBD) (Homo sapiens (Human), UniProt P62508). As to the kind of experiment: ERRγ binding assay (inverse agonist assay), TR-FRET. A general note: In TR-FRET formats the signal depends on donor and acceptor labels being close together.
Description: 1) ERRγ Binding Assay (Inverse Agonist Assay)
as §4
The format of series [11] is in vitro ADME. Particulars: PBS pH 7.4, 25° C., 5 hours.
Description: 3) Parallel Artificial Membrane Permeability Assay (PAMPA) Evaluation
PAMPA is a method which has been developed for testing cell membrane permeability of a material in a test tube, and has been performed using a lipid tri-layer PVDF membrane available from Corning Gentest (NY, US), the used reagents were all purchased from Sigma (MO, US). First, a test material is diluted in PBS (pH 7.4) to a final concentration of 10 mM, 300 mL of the solution is added to the bottom well of a 96-transwell equipped with a PVDF membrane, and 200 mL of PBS is added to the upper well. Then, a plate is reacted at 25° C. for 5 hours, 20 mL of the solution in each well is transferred to a new container, and 80 mL of acetonitrile containing an internal standard material (4 mM chloropropamide) is added thereto. A concentration of the material in the solution is analyzed using LC-MS/MS (ThermoFisher Scientific, MO, US), and the transmittance of the material is calculated according to the equation reported in the reference document. • Reference document: A novel design of artificial membrane for improving the PAMPA model.

The record followed here is patent US11285226B2, “Aryl ethene derivative and pharmaceutical composition containing same as active ingredient” (priority 2016, dated 2022).

Sequence of CYP1A2 (P05177 whole entry): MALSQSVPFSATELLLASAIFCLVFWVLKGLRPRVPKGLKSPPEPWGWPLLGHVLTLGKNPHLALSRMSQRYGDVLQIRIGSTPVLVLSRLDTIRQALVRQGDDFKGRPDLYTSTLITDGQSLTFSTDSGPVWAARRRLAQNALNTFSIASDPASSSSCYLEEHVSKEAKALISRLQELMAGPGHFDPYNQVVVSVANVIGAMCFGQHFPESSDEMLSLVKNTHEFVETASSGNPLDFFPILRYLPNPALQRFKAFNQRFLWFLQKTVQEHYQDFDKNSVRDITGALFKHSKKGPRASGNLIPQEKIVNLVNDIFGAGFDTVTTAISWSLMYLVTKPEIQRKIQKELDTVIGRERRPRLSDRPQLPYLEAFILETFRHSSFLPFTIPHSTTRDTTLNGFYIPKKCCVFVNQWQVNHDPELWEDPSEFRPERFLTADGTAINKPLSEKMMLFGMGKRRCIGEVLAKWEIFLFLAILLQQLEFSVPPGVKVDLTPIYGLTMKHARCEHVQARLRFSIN
Sequence of ERR alpha LBD (P11474 193-421, species assumed): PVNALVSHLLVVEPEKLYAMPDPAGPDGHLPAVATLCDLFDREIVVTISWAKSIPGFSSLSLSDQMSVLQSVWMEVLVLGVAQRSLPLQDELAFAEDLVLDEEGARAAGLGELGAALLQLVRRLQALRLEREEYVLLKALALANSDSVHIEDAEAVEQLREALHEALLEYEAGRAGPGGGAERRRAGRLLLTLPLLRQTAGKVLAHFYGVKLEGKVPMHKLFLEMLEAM
Sequence of CYP2C9 (P11712 whole entry): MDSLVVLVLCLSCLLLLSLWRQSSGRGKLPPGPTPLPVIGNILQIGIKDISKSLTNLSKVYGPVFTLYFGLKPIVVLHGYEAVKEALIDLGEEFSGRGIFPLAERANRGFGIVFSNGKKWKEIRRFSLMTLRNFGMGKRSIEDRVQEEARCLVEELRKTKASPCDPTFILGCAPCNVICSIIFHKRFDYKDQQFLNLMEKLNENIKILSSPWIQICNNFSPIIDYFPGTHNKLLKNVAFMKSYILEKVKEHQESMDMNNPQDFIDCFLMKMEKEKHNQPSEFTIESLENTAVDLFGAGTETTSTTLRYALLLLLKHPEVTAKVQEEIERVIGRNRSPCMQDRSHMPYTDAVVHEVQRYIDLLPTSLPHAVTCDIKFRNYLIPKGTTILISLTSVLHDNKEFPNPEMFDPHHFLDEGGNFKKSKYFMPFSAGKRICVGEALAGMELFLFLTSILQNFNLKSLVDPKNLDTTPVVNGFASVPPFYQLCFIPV
Sequence of ER alpha ligand-binding domain (LBD) (P03372 whole entry, looked up, the tested form may be a part): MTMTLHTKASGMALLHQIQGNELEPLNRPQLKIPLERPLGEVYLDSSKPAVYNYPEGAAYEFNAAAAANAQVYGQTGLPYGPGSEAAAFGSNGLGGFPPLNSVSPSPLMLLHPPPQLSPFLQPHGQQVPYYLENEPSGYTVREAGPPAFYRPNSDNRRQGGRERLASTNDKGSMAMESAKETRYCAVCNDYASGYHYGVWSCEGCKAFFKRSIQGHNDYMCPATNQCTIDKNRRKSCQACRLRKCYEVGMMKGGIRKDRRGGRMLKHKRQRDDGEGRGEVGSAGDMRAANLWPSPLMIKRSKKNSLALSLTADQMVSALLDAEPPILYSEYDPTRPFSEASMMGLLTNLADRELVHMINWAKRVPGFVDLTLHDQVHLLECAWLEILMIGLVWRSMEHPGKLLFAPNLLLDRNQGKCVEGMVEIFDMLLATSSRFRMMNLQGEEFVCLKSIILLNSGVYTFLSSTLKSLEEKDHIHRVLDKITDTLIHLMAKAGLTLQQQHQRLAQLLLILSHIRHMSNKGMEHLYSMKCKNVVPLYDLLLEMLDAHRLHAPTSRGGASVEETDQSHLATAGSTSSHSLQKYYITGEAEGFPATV
Sequence of CYP2D6 (P10635 whole entry): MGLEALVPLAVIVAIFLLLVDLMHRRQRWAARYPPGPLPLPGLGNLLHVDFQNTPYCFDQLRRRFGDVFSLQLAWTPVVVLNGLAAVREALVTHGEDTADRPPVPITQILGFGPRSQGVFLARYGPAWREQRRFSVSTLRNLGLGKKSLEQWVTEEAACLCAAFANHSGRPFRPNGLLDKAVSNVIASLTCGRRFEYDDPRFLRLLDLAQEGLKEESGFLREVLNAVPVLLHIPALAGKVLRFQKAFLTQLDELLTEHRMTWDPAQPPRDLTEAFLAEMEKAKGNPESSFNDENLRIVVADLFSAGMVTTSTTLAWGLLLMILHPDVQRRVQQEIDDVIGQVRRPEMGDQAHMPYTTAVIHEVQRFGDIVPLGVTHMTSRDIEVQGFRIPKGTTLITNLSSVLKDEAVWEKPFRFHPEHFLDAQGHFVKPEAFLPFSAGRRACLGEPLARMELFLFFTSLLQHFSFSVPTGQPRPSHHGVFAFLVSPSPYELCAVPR
Sequence of CYP2C19 (P33261 whole entry): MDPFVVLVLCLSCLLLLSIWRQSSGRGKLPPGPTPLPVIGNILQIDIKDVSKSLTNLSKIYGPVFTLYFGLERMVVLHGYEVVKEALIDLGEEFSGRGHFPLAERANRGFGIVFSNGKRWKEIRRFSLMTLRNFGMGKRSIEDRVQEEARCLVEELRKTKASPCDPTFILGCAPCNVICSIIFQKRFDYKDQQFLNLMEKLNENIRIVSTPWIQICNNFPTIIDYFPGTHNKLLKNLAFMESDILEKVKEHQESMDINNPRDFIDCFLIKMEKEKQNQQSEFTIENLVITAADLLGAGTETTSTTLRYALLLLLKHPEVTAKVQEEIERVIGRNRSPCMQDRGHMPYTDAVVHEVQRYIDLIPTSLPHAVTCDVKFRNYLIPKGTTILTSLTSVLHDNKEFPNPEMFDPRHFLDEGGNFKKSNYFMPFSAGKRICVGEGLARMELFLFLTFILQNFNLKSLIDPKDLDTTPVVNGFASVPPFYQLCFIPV
Sequence of CYP3A4 (P08684 whole entry): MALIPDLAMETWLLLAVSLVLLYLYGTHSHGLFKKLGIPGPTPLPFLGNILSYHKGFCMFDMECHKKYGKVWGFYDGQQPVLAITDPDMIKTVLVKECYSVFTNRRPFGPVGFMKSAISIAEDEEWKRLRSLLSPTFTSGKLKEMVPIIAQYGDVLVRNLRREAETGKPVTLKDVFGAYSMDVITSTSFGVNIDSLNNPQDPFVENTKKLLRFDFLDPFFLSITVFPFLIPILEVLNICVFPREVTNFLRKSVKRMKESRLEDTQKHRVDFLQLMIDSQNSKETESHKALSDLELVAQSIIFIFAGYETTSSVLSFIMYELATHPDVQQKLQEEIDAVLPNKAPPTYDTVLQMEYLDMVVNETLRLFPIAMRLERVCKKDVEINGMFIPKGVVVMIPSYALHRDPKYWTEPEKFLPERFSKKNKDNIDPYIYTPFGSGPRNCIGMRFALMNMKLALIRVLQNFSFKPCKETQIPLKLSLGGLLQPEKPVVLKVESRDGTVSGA
Sequence of ERR gamma ligand-binding domain (LBD) (P62508 233-457): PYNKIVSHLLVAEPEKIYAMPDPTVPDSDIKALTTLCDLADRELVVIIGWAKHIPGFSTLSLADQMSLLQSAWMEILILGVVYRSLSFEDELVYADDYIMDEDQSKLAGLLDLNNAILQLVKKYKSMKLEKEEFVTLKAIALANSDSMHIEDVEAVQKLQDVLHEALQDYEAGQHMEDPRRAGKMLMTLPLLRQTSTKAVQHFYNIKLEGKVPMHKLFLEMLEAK
Description for ERR alpha LBD: as §4
Description for ERRβ: as §4

As for `CC(C)N1CCN(c2ccc(C(=C(CCCO)c3ccccc3)c3ccc(O)cc3)cc2)CC1` [Compound 18a], the “ERRγ protein expression, decrease vs vehicle treated group” value in series [1] is “about 2.8 times”. For the same compound, in series [2], the “increase in membrane fully glycosylated NIS protein” value is given as 8.1 times and the “increase in membrane partially glycosylated NIS protein” value was determined as 6.4 times. Moreover, the “total NIS protein expression, change vs vehicle treated group” value in series [2] (text says significantly increased, then decreased) is reported as “about 1.9 times”. Moreover, the “ERRγ mRNA expression, decrease vs vehicle treated group” value in the series on ERRγ mRNA in CAL62 cells is “about 16 times”. Further, the “radioactive uptake in CAL62 tumor, increase vs vehicle group” value in [3] (100 mpk orally daily for 6 days) worked out at 4.4 times. The “radioactive uptake in CAL62 tumor, increase vs vehicle group” value in series [3] (200 mpk orally daily for 6 days) is listed as 16.2 times. At CYP1A2, the “CYP inhibition (% of control) 1A2” value is on record as 88 % of control. Also, in the series on NIS mRNA in CAL62 cells, the “NIS mRNA expression, increase vs vehicle-treated group” value was “about 2 times”. Moreover, in series [4], the “weight change in the mice” value was “abrupt weight change in the mice was not shown”. Further, in the series with CAL62 cells, the “cytotoxic effect in clone formation assay” value is listed as “minimal cytotoxic effect”. Besides, the “concentration of maximum increase of iodine uptake” value in the series with CAL-62 cells (CAL62 cells) came to 12 µM. In addition, in the series on CAL-62 cells (for each concentration and each time), the “radioactive iodine uptake in CAL62 cells” value is reported as “significant increase”.
Turning to `OCCC/C(=C(\c1ccc(O)cc1)c1ccc(C2CCNCC2)cc1)c1ccccc1` [Compound 20j], on CYP2D6, the “CYP inhibition (% of control) 2D6” value is 89.3 % of control. In the series with ERRγ (10 μM, AD293, 24 hours), the “Functional Assay at 10 μM (% of control), Cpds” value is 1.41 % of control. The “Functional Assay, Cpds/Ref 5182” value in the series on ERRγ (activity relative to reference compound GSK5182) was determined as 1.38. Further, the “MS (Microsomal Stability) (%) mouse” value in [5] amounted to 25.3%. Also, the IC50 is 992 nM in series [6], 4930 nM on ERRβ and over 10000 nM on ERR alpha LBD. Further, the “MS (Microsomal Stability) (%) rat” value in series [7] was 84.5%. Besides, on CYP1A2, the “CYP inhibition (% of control) 1A2” value was 93.6 % of control. For the same compound, the “CYP inhibition (% of control) 2C19” value at CYP2C19 is listed as 62 % of control. In addition, at CYP2C9, the “CYP inhibition (% of control) 2C9” value is given as 77.1 % of control. The “CYP inhibition (% of control) 3A4” value at CYP3A4 was 66.2 % of control. Besides, the “MS (Microsomal Stability) (%) human” value in series [8] was determined as 76.8%. Moreover, in [9], the “MS (Microsomal Stability) (%) dog” value amounted to 68.3%.
`OCCC/C(=C(\c1ccc(O)cc1)c1ccc(C2CCN(C3CCCCC3)CC2)cc1)c1ccccc1` [Compound 22p]: on CYP2D6, the “CYP inhibition (% of control) 2D6” value is listed as 79.6 % of control. In addition, in series [5], the “MS (Microsomal Stability) (%) mouse” value amounted to 40.4%. The IC50 in [6] stood at 2120 nM; in series [10], 99 nM; on ERR alpha LBD, 9700 nM. Also, the “MS (Microsomal Stability) (%) rat” value in series [7] is reported as 75.3%. The “CYP inhibition (% of control) 1A2” value at CYP1A2 is on record as 88.1 % of control. Further, the “CYP inhibition (% of control) 2C19” value at CYP2C19 is given as 61.5 % of control. In [11], the “Permeability Pampa” value is 0.2 10^−6 cm/s. The “CYP inhibition (% of control) 2C9” value at CYP2C9 was 81.8 % of control. Moreover, the “CYP inhibition (% of control) 3A4” value at CYP3A4 was 90.6 % of control. Besides, the “MS (Microsomal Stability) (%) human” value in [8] stood at 72.3%. The “MS (Microsomal Stability) (%) dog” value in [9] is on record as 77.7%.

As usually defined, the IC50 is the concentration that gives 50% inhibition.
